# Test results reported in patent US8802675B2, “Neuroprotective multifunctional compounds and pharmaceutical compositions comprising them” (priority 2009, dated 2014).
# “And” between values parts separate entries of the source, which are not always exact repeats. Identical values can stand only once. Like-named read-outs stand apart in the source and are kept apart here.
# Key:
# [1] = system: ChE from rat brain homogenates; assay: Time course of total ChE inhibition at 1 μM versus rivastigmine; assay type: biochemical; conditions: for preincubation time to maximum (peak) inhibition on total ChE: 1 μM compound; for ChE inhibition compared with rivastigmine and other carbamates: 1 μM, time course
# Protocol: The new carbamates of the present invention are expected to act as rivastigmine and inhibit ChE activity. […] Enzyme activity was determined with Ellman's colorimetric method after addition of substrate, and the results are shown in FIGS. 8A-8B.
# rat brain MAO-A = target: T1, rat brain MAO-A (Rattus norvegicus, UniProt P21396); assay: biochemical
# T1 construct: from tissue; host or cells: rat brain homogenate
# T1 sequence (P21396 1-526): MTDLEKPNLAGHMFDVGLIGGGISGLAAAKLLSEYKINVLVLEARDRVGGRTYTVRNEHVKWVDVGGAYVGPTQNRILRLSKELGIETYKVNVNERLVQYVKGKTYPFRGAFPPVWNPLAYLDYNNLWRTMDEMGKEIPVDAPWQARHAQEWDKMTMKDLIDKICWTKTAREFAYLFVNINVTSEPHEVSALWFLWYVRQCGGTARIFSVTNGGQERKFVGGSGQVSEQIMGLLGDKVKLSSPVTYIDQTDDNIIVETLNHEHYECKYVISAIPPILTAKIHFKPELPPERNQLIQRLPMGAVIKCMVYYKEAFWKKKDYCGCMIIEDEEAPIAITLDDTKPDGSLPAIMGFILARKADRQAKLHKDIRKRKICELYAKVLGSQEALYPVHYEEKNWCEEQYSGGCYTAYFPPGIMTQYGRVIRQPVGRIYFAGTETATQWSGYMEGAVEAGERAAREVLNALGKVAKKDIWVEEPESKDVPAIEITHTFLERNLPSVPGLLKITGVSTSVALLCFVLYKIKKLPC
# Protocol: Rats were decapitated and the brains were quickly taken into a pre-weighted ice-cold sucrose buffer (10 mM Tris-HCl buffer, pH 7.4, containing 0.32 M sucrose), and their weights were measured. The brains were homogenized at 0-4° C. in 0.32 M sucrose (one part tissue to 20 parts sucrose) in a Teflon glass homogenizer. The resultant homogenates were used to determine MAO activity. Protein concentration was determined with Bradford reagent at 595 nm, using bovine serum albumin as a standard.
# The activity of MAO-A and MAO-B were determined by the adapted method of Tipton & Youdim (Tipton et al. 1983). Briefly, the multifunctional compound tested was added to a suitable dilution of the enzyme preparation (70 μg MAO-B and 150 μg MAO-A) in 0.05 M phosphate buffer (pH 7.4). The mixture was incubated together with 0.05 μM 1-deprenyl, a specific inhibitor of MAO-B (for determination of MAO-A activity in the presence of the test compound) or 0.05 μM clorgyline a specific inhibitor of MAO-A (for determination of MAO-B activity). […] The reaction was stopped with 2M ice-cold citric acid, and the radioactive metabolites (5-hydroxytryptaldehyde and phenylacetaldehyde) were extracted by addition of 2 ml of ethylacetate/toluene (1:1 vol/vol). The radioactivity contained in the organic phase was determined by liquid-scintillation counting in cpm units.
# MAO-A and MAO-B activities were determined in rat brain homogenate in vitro following incubation with varying concentrations of the test compounds.
# The results are the mean SEM, n=3 in triplicates.
# [2] = Metal chelation assay (UV-vis spectra of metal complexes); assay type: physicochemical; conditions: 5% NH4Ac, pH=7; for complexation with Cu^2+ or Zn^2+: CuSO4 or ZnCl2, UV-vis; for interaction with Fe: FeCl3 or FeSO4, absorbance at 300 nm
# Description: Metal chelation, particularly iron chelation, is an important precondition for the antioxidative-function of the multi-functional compounds of the invention, because it is the excessive iron stores and iron-mediated generation of free radicals in the brain that are thought to be associated with neurodegenerative diseases. The novel strategy, according to the present invention, for the treatment of neurodegenerative diseases such as Alzheimer's disease is the design of pro-chelators that inhibit AChE with a concomitant release of the active chelators. This novel strategy has advantages over the current chelator strategy since it is capable not only of minimizing the potential toxicity associated with strong chelators such as the 8-hydroxyquinoline derivatives disclosed in WO 2004/041151, which might interfere with healthy metal metabolism in the brain, but it also offers multiple activities against AChE, Aβ aggregation, oxidative stress, and metal (Fe, Cu, Zn) dyshomeostasis in the brain. Therefore, a metal chelation assay was used to confirm that the new multifunctional pro-chelators that comprise an N,N-dialkylcarbamoyl moiety [N(RR′)CO—] linked to the oxygen at position 8 of quinoline would have little to no affinity for metal ions in their pro-drug form. When these pro-chelators bind to cholinesterase or AChE in the brain, the N,N-dialkylcarbamoyl moiety is dissociated, thus unmasking a free hydroxyl group at said position 8 of quinoline, turning the pro-chelators into active chelators, which passivate excess cerebral metal ions and protect neuronal cells against reactive oxygen species (ROS).
# A spectrophotometric method was used for measurement of metal complexes of the multifunctional pro-chelators of the invention with metal ions selected from Zn^2+, Cu^2+, Fe^3+ and Fe^2+, and compared to the respective metal complexes of some known iron chelators disclosed in WO 2004/041151.
# Thus, the metal chelating function of compound 13 and compound 23 as compared to M30 and HLA20, respectively, was measured by dissolving 0.1 mM or 0.2 mM of the test compounds in 5% NH4Ac, pH=7, in the presence and absence of 0.1 mM or 0.2 mM of the metal salts […], CuSO4, FeCl3 and FeSO4, and measuring the UV-vis spectra (Hewlett-Packard 8450A diode array spectrophotometer) of the various metal complexes formed. The results for M30 and compound 13 are shown in FIGS. 1A and 1B, respectively.
# [3] = system: human SH-SY5Y neuroblastoma cells; assay: MTT cell viability assay in SH-SY5Y cells; assay type: cell-based; conditions: MTT after 48 h incubation
# Protocol: Cell culture. Human neuroblastoma SH-SY5Y cells were obtained from American Type Culture Collection (Rockville, Md., USA). Cells were routinely cultured in MEM-Eagle/F-12(HAM) (1:1), containing 10% FCS and a mixture of 2% sodium bicarbonate, 1% penicillin/streptomycin/nystatin and 1% sodium pyruvate. Cell cultures were incubated at 37° C. in a humid 5% CO2-95% air environment.
# Twenty-four hours after attachment of the SH-SY5Y cells, the medium was replaced with DMEM containing 0.1% BSA. The test compounds were added to the cells after 1 h of incubation. After 24 h incubation, the cells were subjected to MTT test as previously described (Gassen et al., 1998). The absorption was determined in a Perkin-Elmer Dual Wavelength Eliza-Reader at λ=570/650 nm after automatic subtraction of background readings. The results are expressed as percentage of the untreated control.
# The effect of the iron chelators M30 and HLA20 versus that of the pro-chelators 13 and 23, on viability of human SH-SY5Y cells was tested. Human SH-SY5Y neuroblastoma cells were plated in 100-mm culture dishes and cultured in DMEM (4,500 mg/l glucose), containing 10% FCS (fetal calf serum, Bet Haemek, Israel), and 1% of a mixture of penicillin/streptomycin/nystatin. When cells reached the required confluence, they were detached and re-cultured in microtiter plates (96 wells) pre-coated with collagen ([…]), in DMEM with 10% of fetal calf serum (0.5×10^4 cells/well). Cell viability was tested by the 3-(4,5-dimethylthiazol-2-yl)-2,5-diphenyltetrazolium (MTT) assays after 48 h incubation.
# [4] = IC50 MAO-A, rat brain homogenate in vitro, mean SEM, n=3 in triplicates
SMILES,preincubation time to maximum (peak) inhibition on total ChE [1],ChE inhibition compared with rivastigmine and other carbamates [1],IC50 (rat brain MAO-A; [4]),complexation with Cu^2+ or Zn^2+ [2],interaction with Fe [2],cell viability ([3]; 10 μM),cell viability ([3]; 25 μM),inhibitory effect on MAO-A (rat brain MAO-A; rat brain homogenate),inhibition at 10 µM (rat brain MAO-A; read-out: percent inhibition MAO-A),cell viability ([3]; 50 μM),"binding of metal ions (shift of absorbance peak) ([2]; ZnCl2, CuSO4, FeCl3 and FeSO4)",IC50 (rat brain MAO-A)
"C#CCN(C)Cc1ccc(OC(=O)N(C)CC)c2ncccc12 [Compound 3, 5-((methyl(propargyl)amino)methyl)quinolin-8-yl ethyl(methyl)carbamate]",≤ 1.5 h,far less potent than the other carbamates,< 100 nM,,,,,,,,,
"C#CCN(C)Cc1ccc(OC(=O)N2CCCC2)c2ncccc12 [Compound 5, 5-((methyl(propargyl)amino)methyl)quinolin-8-yl pyrrolidine-1-carboxylate]",≤ 3 h,far less potent than the other carbamates,4.7 to 20 nM and 4.9 nM,,,,,,,,,
"C#CCN(C)Cc1ccc(OC(=O)N2CCN(Cc3ccccc3)CC2)c2ncccc12 [Compound 13, 5-((methyl(propargyl)amino)methyl)quinolin-8-yl 4-benzyl piperazine-1-carboxylate]",,as potent as rivastigmine,4.7 to 20 nM and 20 nM,little or no complexation,weak interaction,similar,significantly higher,,,,,
"C#CCC1CCN(Cc2ccc(OC(=O)N(C)C)c3ncccc23)CC1 [Compound 23, 5-((4-(propargyl)piperidin-1-yl)methyl)quinolin-8-yl dimethylcarbamate]",2 h,increasingly greater inhibition,,little or no complexation,weak interaction,over 75%,over 75%,minor to none inhibitory effects,13%,40%,,
"C#CCN(C)Cc1ccc(O)c2ncccc12 [M30, reference compound]",,,,,,similar,,,,,binds the respective metal ions,37 ± 20 nM
